Data as given in BindingDB's records for doi:10.1016/s0960-894x(98)00562-9 (The Procter & Gamble, 1999).
pKi: −log10 of the molar value.

These compounds were tested against Plasmin (Homo sapiens) (assay: Inhibitory activity of compound against Plasmin (HP)).

Row | Compound | pKi
1 | CC(C)(C)[C@@H](NC(=O)OC12CC3CC(CC(C3)C1)C2)C(=O)N[C@@H](Cc1ccccc1)C(=O)NC(Cc1ccc(NC(=N)N)cc1)C(=O)C(F)(F)F (stereo partly drawn) [((R)-2,2-Dimethyl-1-{(S)-2-phenyl-1-[3,3,3-trifluoro-1-(4-guanidino-benzyl)-2-oxo-propylcarbamoyl]-ethylcarbamoyl}-propyl)-carbamic acid adamantan-1-yl ester] | 6.92
2 | N=C(N)Nc1ccc(CC(NC(=O)[C@H](Cc2ccccc2)NC(=O)[C@@H](CCc2ccccc2)NC(=O)OC23CC4CC(CC(C4)C2)C3)C(=O)C(F)(F)F)cc1 (stereo partly drawn) [((R)-3-Phenyl-1-{(S)-2-phenyl-1-[3,3,3-trifluoro-1-(4-guanidino-benzyl)-2-oxo-propylcarbamoyl]-ethylcarbamoyl}-propyl)-carbamic acid adamantan-1-yl ester] | 7.40
3 | CC(C)(C)[C@@H](NC(=O)N1CCOCC1)C(=O)NCC(=O)NC(Cc1ccc(NC(=N)N)cc1)C(=O)C(F)(F)F (stereo partly drawn) [Morpholine-4-carboxylic acid [(R)-2,2-dimethyl-1-({[3,3,3-trifluoro-1-(4-guanidino-benzyl)-2-oxo-propylcarbamoyl]-methyl}-carbamoyl)-propyl]-amide] | 3.96
4 | CC(C)(C)OC(=O)N[C@H](Cc1ccccc1)C(=O)N[C@H](C(=O)NC(Cc1ccc(NC(=N)N)cc1)C(=O)C(F)(F)F)c1ccc2ccccc2c1 (stereo partly drawn) [[(R)-1-({(S)-Naphthalen-2-yl-[3,3,3-trifluoro-1-(4-guanidino-benzyl)-2-oxo-propylcarbamoyl]-methyl}-carbamoyl)-2-phenyl-ethyl]-carbamic acid tert-butyl ester] | 7.22
